# Experimental data from US20090232909A1, “Method for determining physiological effects of hemoglobin” (priority 1999, published 2009).
# Entries after “also recorded” stand apart in the source; their conditions may differ.
# What was measured:
# [1] = system: myoglobin; details: cited from earlier work
# [2] = system: intact human erythrocytes; assay: Distribution of NO groups in membrane and cytosolic fractions of RBCs exposed to NO; type: cell-based; details: 0.1 mM DIDS before NO, NO:heme 1:250
# Procedure: RBCs derived from fresh venous blood and suspended in oxygen-purged phosphate-buffered saline (PBS) were exposed in gas-tight vials to NO, added as aliquots of oxygen-purged NO-saturated PBS to yield the specified NO:heme ratios based on spectrophotometric assessment of heme content. Exposure to NO was for 5 mins followed by rinses in PBS at 21% O2. RBCs were lysed in 10 mM MOPS, 0.1 mM DTPA, pH 7, followed by centrifugation at 20,000×g for 10 mins to produce membrane and cytosolic fractions, which were solubilized in 1% TX-100. Quantification of NO groups was by photolysis/chemiluminescence (McMahon, T. J. & Stamler, J. S., Meth. Enzymol. 301:99-114, 1999). SNO content was measured as NO removed by treating sample aliquots for 5 mins with HgCl2 at 5-fold molar excess over estimated thiol content (Gow, A. J. & Stamler, J. S., Nature 391:169-173, 1998; Gow, A. J. et al., Proc. Natl. Acad. Sci. USA 96:9027-9032, 1999; McMahon, T. J. & Stamler, J. S., Meth. Enzymol. 301:99-114, 1999). […]
# Immunoprecipitation was carried out by incubation of TX-100 or NP-40 extracts with antibodies followed by protein G-Sepharose. […] Binding of SNO-Hb to IOVs was assessed in 10 mM MOPS buffer, pH 7, at room temperature and 21% O2. Incubation was for 15 mins before IOVs were solubilized in 1% TX-100, and heme content was assessed spectrophotometrically. […]
Compound,rate of NO binding to ferrous myoglobin [1] [M⁻¹ s⁻¹],rate of NO oxidation of oxymyoglobin [1],effect on SNO in the membrane fraction [2],effect on net formation of NO-liganded Hb (total NO incorporated by RBCs) [2]
"[N]=O [NO, nitric oxide]",2.5e+07,3.4×10^7 M^−1 sect^−1,,
"O=S(=O)(O)c1cc(N=C=S)ccc1C=Cc1ccc(N=C=S)cc1S(=O)(=O)O [DIDS, 4,4′-diisothiocyanatostilbene-2,2′-disulfonic acid]",,,greatly decreased; also recorded: substantially decreases,did not reduce; also recorded: does not reduce
